# “And” between values parts separate entries of the source, which are not always exact repeats. Equal entries are not always repeated. The source made the active and inactive calls.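 Rule for the calls: active = fitted curve rises past activity 40 at a concentration no higher than the top valid tested dose; inconclusive = flat curve at 30 to 70 percent, or poor fit; inactive = the rest, including activity in the opposite direction.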
# Tested on: C. neoformans lysis, adenylate kinase release luminescence, 4 h
# Test: fungal lysis via adenylate kinase leakage – AK release luminescence, dry powder, set 3, dose response (AID 743302)
# Details: not given
row,Structure (SMILES),AC40
1,Fc1cccc(OCCn2c(=S)[nH]c3ccccc32)c1,3270 nM
2,Fc1cccc2c1[nH]c(=S)n2CCOc1ccccc1,3180 nM and 2700 nM and 1570 nM
3,CC(C)c1ccc(OCCn2c(=S)[nH]c3ccccc32)cc1,172 nM
4,CCOc1ccc(OCCn2c(=S)[nH]c3ccccc32)cc1,1380 nM
5,Cc1ccc(C(C)C)c(OCCn2c(=S)[nH]c3c(C)cccc32)c1,1820 nM
6,Cc1ccc(C(C)C)c(OCCn2c(=S)[nH]c3cccc(F)c32)c1,> 15000 nM (inactive)
7,Cc1ccc(C(C)C)c(OCCn2c(=S)[nH]c3ccccc32)c1,3570 nM and 2720 nM
8,Cc1ccc(C(C)C)c(OCCn2c(CO)nc3ccccc32)c1,14000 nM
9,Cc1ccc(C(C)C)c(OCCn2c(=S)[nH]c3cccc(C)c32)c1,8260 nM
10,Cc1ccc(OCCn2c(=S)[nH]c3ccccc32)c(C(C)C)c1,9540 nM and 1410 nM
11,Cc1ccc(C(C)C)c(OCCn2c(=S)[nH]c3cccc(Cl)c32)c1,> 15000 nM (inactive)
12,CC(C)c1ccccc1NCCn1c(=S)[nH]c2ccccc21,5860 nM
13,CC(C)(C)c1ccc(OCCn2cnc3ccccc32)cc1,1950 nM
14,Cc1ccc(OCCn2cnc3ccccc32)c(C(C)C)c1,3820 nM
15,Cc1cccc(OCCn2c(=S)[nH]c3cc(C(F)(F)F)ccc32)c1,> 15000 nM (inactive)
16,COCc1nc2ccccc2n1CCOc1ccc(C(C)(C)C)cc1,6790 nM
17,CC(C)c1ccccc1OCCn1c(=S)[nH]c2ccccc21,1110 nM
18,COc1ccc(OCCn2c(=S)[nH]c3ccccc32)cc1,13700 nM
19,Cc1ccc(C(C)C)c(OCCn2c(=S)[nH]c3cc(F)ccc32)c1,5510 nM
20,Cc1ccc(OCCn2c(C)nc3ccccc32)cc1,> 15000 nM (inactive)
21,Cc1cccc(OCCn2c(=S)[nH]c3ccccc32)c1,910 nM
22,Cc1ccc(OCCn2cnc3ccccc32)cc1,> 15000 nM (inactive)
23,S=c1[nH]c2cccc(Cl)c2n1CCOc1ccccc1,3600 nM and 619 nM
24,Cc1cccc(OCCn2c(=S)[nH]c3ccc(C(F)(F)F)cc32)c1,14300 nM

row,Structure (SMILES),AC40
1,Fc1ccccc1OCCn1c(=S)[nH]c2ccccc21,8740 nM
2,Cc1ccc(C)c(OCCn2c(=S)[nH]c3ccccc32)c1,1820 nM
3,Cc1ccc(C(C)C)c(OCCn2c(=S)[nH]c3c(Cl)cccc32)c1,> 15000 nM (inactive)
4,Cc1ccc(OCCn2c(SCCO)nc3ccccc32)c(C(C)C)c1,> 15000 nM (inactive)
5,Cc1ccc(C(C)C)c(OCCn2c(=S)[nH]c3ccc(Cl)cc32)c1,> 15000 nM (inactive)
6,Cc1cccc(OCCn2c(=S)[nH]c3ccccc32)c1C,> 15000 nM (inactive)
7,Cc1ccc(C(C)C)c(OCCn2c(=S)[nH]c3ccc(F)cc32)c1,1060 nM
8,Cc1cccc(OCCn2c(=S)[nH]c3c(F)cccc32)c1,726 nM and 1300 nM
9,Cc1ccc(OCCn2c(=S)[nH]c3ccccc32)cc1,1140 nM
10,CC(C)(C)c1ccccc1OCCn1c(=S)[nH]c2ccccc21,3230 nM
11,O=c1[nH]c2ccccc2n1CCOc1ccccc1,> 15000 nM (inactive)
12,Cc1cccc(OCCn2c(=S)[nH]c3cc(F)ccc32)c1,581 nM and 1820 nM
13,S=c1[nH]c2cc(Cl)ccc2n1CCOc1ccccc1,358 nM
14,Cc1ccc(OCCn2c(=S)[nH]c3ccccc32)c(C)c1,> 15000 nM (inactive)
15,COc1cccc(OCCn2c(=S)[nH]c3ccccc32)c1,> 15000 nM (inactive)
16,Fc1ccc2[nH]c(=S)n(CCOc3ccccc3)c2c1,> 15000 nM (inactive)
17,c1ccc(OCCn2cnc3ccccc32)cc1,> 15000 nM (inactive)
18,Cc1cccc2[nH]c(=S)n(CCOc3ccccc3)c12,211 nM
19,Fc1ccc2c(c1)[nH]c(=S)n2CCOc1ccccc1,3060 nM and 1950 nM
20,Cc1ccc2c(c1)[nH]c(=S)n2CCOc1ccccc1,4240 nM and 940 nM
21,S=c1[nH]c2ccccc2n1CCOc1ccccc1Cl,902 nM
22,S=c1[nH]c2ccccc2n1CCOc1ccc(Cl)cc1,1190 nM
23,Cc1ccccc1OCCn1c(=S)[nH]c2ccccc21,1870 nM

# Tested on: not listed separately
# Test: as above
# Details: C. neoformans lysis, adenylate kinase release luminescence, 4 h; at 15 µM (top of the series)
row,Structure (SMILES),cell lysis activity
1,CC(C)(C)c1ccc(OCCn2c(=S)[nH]c3ccccc32)cc1,4.17% (inactive)
2,S=c1[nH]c2ccccc2n1CCOc1ccccc1,33.9% (inactive)
3,Cc1ccc(C(C)C)c(OCCn2c(=S)[nH]c3c(F)cccc32)c1,-28.6% (inactive)
4,Fc1ccc(OCCn2c(=S)[nH]c3ccccc32)cc1,-54.7% (inactive)
5,COc1ccccc1OCCn1c(=S)[nH]c2ccccc21,-4.68% (inactive)
6,CSc1nc2ccccc2n1CCOc1cc(C)ccc1C(C)C,3.47% (inactive)

# From PubChem BioAssay AID743302 (Broad Institute, 2014)
